Test results from paper PMC8391421, “Identification of Novel Positive Allosteric Modulators of Neurotrophin Receptors for the Treatment of Cognitive Dysfunction” (Cells, 2021).

Columns and labels:
TrkC = biological target: T1, TrkC (Homo sapiens, UniProt Q16288); assay: TrkC PathHunter cell-based assay (U2OS-TrkC/p75)
T1 construct: host or cells: U2OS (human osteosarcoma), co-expressing p75
Description: (§1) The human osteosarcoma cell lines U2OS-TrkA/p75, U2OS-TrkB/p75, U2OS-TrkC/p75, U2OS-ratTrkA/p75, U2OS-FGFR1 (fibroblast growth factor receptor 1) as well as the human embryonic kidney cell line HEK293-IGF1R (insulin-like growth factor 1 receptor) from DiscoverX, Birmingham, United Kingdom, were used in the in vitro experiments. Eagle’s minimum essential medium (EMEM) ATCC #30-2003 from LGC Standards AB, Borås, Sweden; Leibovitz’s L15 medium, RPMI1640, fetal bovine serum, horse serum, penicillin/streptomycin, and Hoechst dye purchased from Invitrogen, Gothenburg, Sweden, were also used. Black poly-D-lysine coated 384-well plates (Viewplate) were purchased from PerkinElmer, Upplands Väsby, Sweden, and white 384-well assay plates(3570) were purchased from Corning, Amsterdam, Netherlands. […] Recombinant intracellular domain (ICD) of TrkA (08-186) and single site biotinylated activated (08-486-20N) or non-activated TrkA (08-486-23N) were obtained from Carna Biosciences, Odense, Denmark. […]
(§2) U2OS cells were maintained subconfluent in EMEM supplemented with 10% FBS and penicillin/streptomycin/hygromycin and G418. […] The functional (complemented) β-gal will hydrolyze a substrate to generate a luminescence signal. The generated luminescence was read using an EnVision plate reader from PerkinElmer, Upplands Väsby, Sweden, or an ID5 plate reader from Molecular Devices, Berkshire, RG41 5TS UK. […]

[1] = biological target: T2, insulin-like growth factor 1 receptor (IGF1R) (Homo sapiens, UniProt P08069); assay: IGF1R PathHunter cell-based assay (HEK293-IGF1R)
T2 construct: host or cells: HEK293
T2 sequence (P08069 31-1367): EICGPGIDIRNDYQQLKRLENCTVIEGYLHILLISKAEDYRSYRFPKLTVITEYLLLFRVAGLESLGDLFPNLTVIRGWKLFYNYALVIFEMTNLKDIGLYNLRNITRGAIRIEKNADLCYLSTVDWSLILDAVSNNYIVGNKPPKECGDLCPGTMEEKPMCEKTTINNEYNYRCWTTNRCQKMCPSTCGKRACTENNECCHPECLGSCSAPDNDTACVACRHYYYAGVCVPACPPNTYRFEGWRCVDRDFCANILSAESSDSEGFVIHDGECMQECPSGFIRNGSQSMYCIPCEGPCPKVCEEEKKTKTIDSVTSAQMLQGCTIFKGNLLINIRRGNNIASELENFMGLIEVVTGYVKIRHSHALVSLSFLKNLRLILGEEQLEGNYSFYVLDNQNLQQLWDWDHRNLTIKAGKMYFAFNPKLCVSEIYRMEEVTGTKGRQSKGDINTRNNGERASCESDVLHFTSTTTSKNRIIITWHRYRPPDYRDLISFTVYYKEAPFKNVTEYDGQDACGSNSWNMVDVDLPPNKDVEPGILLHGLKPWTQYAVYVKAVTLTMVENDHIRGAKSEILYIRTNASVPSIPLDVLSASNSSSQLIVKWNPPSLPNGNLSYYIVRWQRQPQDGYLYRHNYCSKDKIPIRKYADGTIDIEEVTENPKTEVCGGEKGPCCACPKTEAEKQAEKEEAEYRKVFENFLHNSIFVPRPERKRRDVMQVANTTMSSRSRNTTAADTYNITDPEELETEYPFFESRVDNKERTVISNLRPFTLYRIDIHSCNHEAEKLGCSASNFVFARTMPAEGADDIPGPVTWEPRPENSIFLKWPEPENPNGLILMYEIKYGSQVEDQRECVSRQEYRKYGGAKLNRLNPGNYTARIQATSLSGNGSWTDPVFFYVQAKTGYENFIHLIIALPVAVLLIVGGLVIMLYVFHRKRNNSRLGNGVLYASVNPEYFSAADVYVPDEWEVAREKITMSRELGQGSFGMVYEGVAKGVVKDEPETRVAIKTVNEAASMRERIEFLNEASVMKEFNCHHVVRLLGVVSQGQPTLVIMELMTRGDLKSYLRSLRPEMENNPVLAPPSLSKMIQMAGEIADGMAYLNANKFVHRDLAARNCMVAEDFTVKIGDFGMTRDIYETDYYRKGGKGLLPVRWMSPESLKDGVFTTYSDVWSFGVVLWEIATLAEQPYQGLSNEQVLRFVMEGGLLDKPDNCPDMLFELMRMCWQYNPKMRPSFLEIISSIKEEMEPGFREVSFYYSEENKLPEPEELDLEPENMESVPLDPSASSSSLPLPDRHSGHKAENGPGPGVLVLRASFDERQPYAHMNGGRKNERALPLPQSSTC
Description: as §1, §2

[2] = biological target: T3, fibroblast growth factor receptor (FGFR1) (Homo sapiens, UniProt P11362); assay: FGFR1 PathHunter cell-based assay (U2OS-FGFR1)
T3 construct: host or cells: U2OS (human osteosarcoma)
T3 sequence (P11362 22-822): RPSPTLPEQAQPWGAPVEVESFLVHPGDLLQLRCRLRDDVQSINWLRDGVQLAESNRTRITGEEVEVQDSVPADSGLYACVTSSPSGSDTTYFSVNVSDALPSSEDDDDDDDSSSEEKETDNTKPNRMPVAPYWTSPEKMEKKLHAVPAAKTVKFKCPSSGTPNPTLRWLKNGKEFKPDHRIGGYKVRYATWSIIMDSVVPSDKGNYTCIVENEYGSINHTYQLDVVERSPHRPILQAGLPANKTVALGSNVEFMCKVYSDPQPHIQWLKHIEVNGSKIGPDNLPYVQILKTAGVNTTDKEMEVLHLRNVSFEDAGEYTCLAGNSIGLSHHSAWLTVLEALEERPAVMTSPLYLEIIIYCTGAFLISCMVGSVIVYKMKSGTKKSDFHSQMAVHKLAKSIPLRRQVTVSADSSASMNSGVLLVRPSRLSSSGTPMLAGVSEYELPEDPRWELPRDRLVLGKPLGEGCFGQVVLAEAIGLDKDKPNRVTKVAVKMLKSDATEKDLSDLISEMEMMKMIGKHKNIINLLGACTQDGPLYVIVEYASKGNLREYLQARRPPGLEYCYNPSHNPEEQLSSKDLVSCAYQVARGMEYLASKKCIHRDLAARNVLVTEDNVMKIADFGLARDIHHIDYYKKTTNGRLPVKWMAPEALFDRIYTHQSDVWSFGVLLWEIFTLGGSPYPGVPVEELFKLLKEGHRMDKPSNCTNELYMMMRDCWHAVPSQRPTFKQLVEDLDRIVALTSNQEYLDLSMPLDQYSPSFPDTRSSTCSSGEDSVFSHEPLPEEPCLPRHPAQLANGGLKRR
Description: as §1, §2

T1 sequence (Q16288 32-839): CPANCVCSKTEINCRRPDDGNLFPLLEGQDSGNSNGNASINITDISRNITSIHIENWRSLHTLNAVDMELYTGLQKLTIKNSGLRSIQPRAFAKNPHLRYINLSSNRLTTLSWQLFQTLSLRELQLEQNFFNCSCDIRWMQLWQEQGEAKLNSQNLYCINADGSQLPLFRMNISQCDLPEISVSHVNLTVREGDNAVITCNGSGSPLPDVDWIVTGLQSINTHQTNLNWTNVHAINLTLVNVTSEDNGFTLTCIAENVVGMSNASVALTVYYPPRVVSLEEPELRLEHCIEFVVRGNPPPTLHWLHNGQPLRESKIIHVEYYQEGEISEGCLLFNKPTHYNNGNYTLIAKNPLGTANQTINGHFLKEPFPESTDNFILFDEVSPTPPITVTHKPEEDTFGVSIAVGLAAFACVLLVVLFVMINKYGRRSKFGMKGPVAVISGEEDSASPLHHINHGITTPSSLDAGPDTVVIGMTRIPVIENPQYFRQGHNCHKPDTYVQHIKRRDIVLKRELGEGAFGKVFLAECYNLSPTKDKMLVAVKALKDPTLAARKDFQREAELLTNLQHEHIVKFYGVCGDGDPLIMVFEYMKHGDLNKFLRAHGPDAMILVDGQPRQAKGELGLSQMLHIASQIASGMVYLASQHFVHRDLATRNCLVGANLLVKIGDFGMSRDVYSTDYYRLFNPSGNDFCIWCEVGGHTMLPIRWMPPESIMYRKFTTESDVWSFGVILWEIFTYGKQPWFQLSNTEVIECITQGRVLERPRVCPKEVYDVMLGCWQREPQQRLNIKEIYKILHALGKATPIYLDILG

Question: How did the EC50 (TrkC) turn out when `Cc1cc(-n2c(=O)[nH]c(=O)n(C)c2=O)ccc1Oc1ccc(S(=O)(=O)C(F)(F)F)cc1` [ACD855, Toltrazuril-sulfone] was run?
Answer: 800 nM

Question: What about the “TrkC Effect (efficacy)” value (TrkC) of the same compound?
Answer: 56%

Question: What about the EC50 [1] of the same compound?
Answer: 900 nM

Question: And the “IGF1R Effect (efficacy)” value [1]?
Answer: 25%

Question: And the EC50 [2]?
Answer: 800 nM

Question: And the “FGFR1 Effect (efficacy)” value [2]?
Answer: 44%
